Key:
Assay in all cases: relative viability (nuclei count vs DMSO), 5 days (fraction); higher = more cells survive
Irinotecan + Lapatinib = compound: CCc1c2c(nc3ccc(OC(=O)N4CCC(N5CCCCC5)CC4)cc13)-c1cc3c(c(=O)n1C2)COC(=O)[C@]3(O)CC [Irinotecan] + CS(=O)(=O)CCNCc1ccc(-c2ccc3ncnc(Nc4ccc(OCc5cccc(F)c5)c(Cl)c4)c3c2)o1 [Lapatinib] (partner 2 µM)
Procedure, shortened: (§1)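 For relative viability, nuclei counts in treated wells were divided by those in vehicle wells. Lung cancer cell lines had been pin-tool dosed in 1536-well plates the day after seeding and cultured for 5 days, then fixed and stained in one step (final 0.05% Triton X-100, 1% formaldehyde, 1 ug/ml Hoechst) and imaged at 4×. Doses were one drug alone or a fixed anchor-drug dose plus five library-drug doses (not always all listed) in √10 steps, and values are duplicate-plate medians.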

RU-SKI 43 + Phenformin = compound: CC[C@@H](C)CNCC(=O)N1CCC2=C([C@@H]1COC3=CC=CC(=C3)C)C=CS2 [RU-SKI 43] + N=C(N)NC(=N)NCCc1ccccc1 [Phenformin] (partner 250 µM)
Procedure, shortened: as §1

MK-8033 + Phenformin = compound: Cn1cc(-c2cnc3ccc4ccc(CS(=O)(=O)NCc5ccccn5)cc4c(=O)c3c2)cn1 [MK-8033] + N=C(N)NC(=N)NCCc1ccccc1 [Phenformin] (partner 250 µM)
Procedure, shortened: as §1

MK-8033 + Olaparib = compound: Cn1cc(-c2cnc3ccc4ccc(CS(=O)(=O)NCc5ccccn5)cc4c(=O)c3c2)cn1 [MK-8033] + O=C(c1cc(Cc2n[nH]c(=O)c3ccccc23)ccc1F)N1CCN(C(=O)C2CC2)CC1 [Olaparib] (partner 8 µM)
Procedure, shortened: as §1

| Cell Line | relative viability (Irinotecan + Lapatinib; first compound 2 µM) | relative viability (Irinotecan + Lapatinib; first compound 6.325 µM) | relative viability (Irinotecan + Lapatinib; first compound 20 µM) | relative viability (RU-SKI 43 + Phenformin; first compound 0.1 µM) | relative viability (RU-SKI 43 + Phenformin; first compound 0.3162 µM) | relative viability (RU-SKI 43 + Phenformin; first compound 1 µM) | relative viability (RU-SKI 43 + Phenformin; first compound 3.162 µM) | relative viability (RU-SKI 43 + Phenformin; first compound 10 µM) | relative viability (MK-8033 + Phenformin; first compound 0.02 µM) | relative viability (MK-8033 + Phenformin; first compound 0.06325 µM) | relative viability (MK-8033 + Phenformin; first compound 0.2 µM) | relative viability (MK-8033 + Phenformin; first compound 0.6325 µM) | relative viability (MK-8033 + Phenformin; first compound 2 µM) | relative viability (MK-8033 + Olaparib; first compound 0.02 µM) | relative viability (MK-8033 + Olaparib; first compound 0.06325 µM) | relative viability (MK-8033 + Olaparib; first compound 0.2 µM) | relative viability (MK-8033 + Olaparib; first compound 0.6325 µM) | relative viability (MK-8033 + Olaparib; first compound 2 µM) | relative viability (Irinotecan + Lapatinib; first compound 0.6325 µM) |
| --- | --- | --- | --- | --- | --- | --- | --- | --- | --- | --- | --- | --- | --- | --- | --- | --- | --- | --- | --- |
| 201T | 1.03 | 0.738 | 0.322 | 0.48 | 0.437 | 0.464 | 0.443 | 0.442 | 0.499 | 0.448 | 0.39 | 0.436 | 0.469 | 0.873 | 0.824 | 0.832 | 0.82 | 0.822 | – |
| A549 | 0.529 | 0.112 | 0.0497 | 0.186 | 0.16 | 0.156 | 0.113 | 0.143 | 0.221 | 0.157 | 0.172 | 0.148 | 0.193 | 0.34 | 0.275 | 0.267 | 0.305 | 0.336 | 0.723 |
| A-427 | 0.752 | 0.221 | 0.179 | 0.335 | 0.308 | 0.44 | 0.29 | 0.305 | 0.308 | 0.371 | 0.289 | 0.325 | 0.374 | 0.778 | 0.722 | 0.623 | 0.818 | 0.676 | – |
| ABC-1 | 1.17 | 0.646 | 0.574 | 0.189 | 0.239 | 0.227 | 0.255 | 0.213 | 0.202 | 0.219 | 0.227 | 0.281 | 0.211 | 1.07 | 0.746 | 0.838 | 0.939 | 0.898 | 1.05 |
| BEN | 0.418 | 0.244 | 0.338 | 0.26 | 0.283 | 0.238 | 0.262 | 0.267 | 0.288 | 0.239 | 0.269 | 0.233 | 0.255 | 1.13 | 1.01 | 0.986 | 0.985 | 1.01 | 0.542 |
| CAL-12T | 0.543 | 0.475 | 0.442 | 0.645 | 0.65 | 0.616 | 0.596 | 0.589 | 0.56 | 0.518 | 0.444 | 0.697 | 0.545 | 0.61 | 0.692 | 0.71 | 0.718 | 0.756 | 0.71 |
| COR-L23 | 0.378 | 0.177 | 0.121 | 0.426 | 0.544 | 0.46 | 0.553 | 0.421 | 0.41 | 0.422 | 0.402 | 0.432 | 0.421 | 0.348 | 0.328 | 0.378 | 0.367 | 0.311 | 0.383 |
| Calu-6 | 0.514 | 0.226 | 0.125 | – | – | – | – | – | – | – | – | – | – | 0.601 | 0.559 | 0.553 | 0.582 | 0.548 | 0.599 |

Source: the supplement of paper PMC10307832
